Results: ChEMBL document CHEMBL2331451, “Discovery of (1R,2R)-N-(4-(6-isopropylpyridin-2-yl)-3-(2-methyl-2H-indazol-5-yl)isothiazol-5-yl)-2-methylcyclopropanecarboxamide, a potent and orally efficacious mGlu5 receptor negative allosteric modulator” (Bioorg Med Chem Lett, 2013)
One block for each compound: values may come before it. Activity calls are given as the source filed them. No cut-off for these calls is given here.

Experiments:
Homo sapiens = species on record: Homo sapiens; assay: Selectivity ratio of IC50 for human recombinant mGlu1 receptor to IC50 for human recombinant mGlu5 receptor
[1] = biological target: Metabotropic glutamate receptor 1 (Homo sapiens, UniProt Q13255); assay: Negative allosteric modulation of human recombinant mGlu1 receptor expressed in Syrian hamster AV12 cells assessed as receptor-mediated changes in intracellular calcium concentration by FLIPR assay; type: functional, cell-based
[2] = biological target: Metabotropic glutamate receptor 5 (Homo sapiens, UniProt P41594); assay: Negative allosteric modulation of human recombinant mGlu5 receptor expressed in Syrian hamster AV12 cells assessed as receptor-mediated changes in intracellular calcium concentration by FLIPR assay; type: functional, cell-based
Rattus norvegicus [3] = assay: Ex vivo receptor occupancy of mGlu5 receptor in Harlan Sprague-Dawley rat brain at 10 mg/kg, po after 4 hrs; type: functional
[4] = Clearance in Harlan Sprague-Dawley rat at 1.5 mg/kg, po and 1 mg/kg, iv; type: ADME, organism-based; conditions: in vivo
[5] = biological target: T1, 5-hydroxytryptamine receptor 2B (Homo sapiens, UniProt P41595); assay: Binding affinity to 5HT2B receptor (unknown origin)
Rattus norvegicus [6] = assay: Ex vivo receptor occupancy of mGlu5 receptor in Harlan Sprague-Dawley rat brain at 10 mg/kg, po after 0.5 hrs; type: functional
Rattus norvegicus [7] = assay: Analgesic activity in po dosed fasted Harlan Sprague-Dawley rat assessed as inhibition of late phase of formalin- induced paw-licking pain behavior; type: functional
[8] = Elimination half life in Harlan Sprague-Dawley rat at 1.5 mg/kg, po; type: ADME, organism-based; parameters: dose 1.5 mg/kg, route oral; conditions: in vivo, read-out: beta t1/2 (converted)
[9] = Elimination half life in Harlan Sprague-Dawley rat at 1 mg/kg, iv; type: ADME, organism-based; parameters: dose 1 mg/kg, route intravenous; conditions: in vivo, read-out: beta t1/2 (converted)
Rattus norvegicus [10] = species on record: Rattus norvegicus; assay: Neurotoxicity in Harlan Sprague-Dawley rat assessed as minimal motor impairment up to 4 hrs by rotorod test; type: toxicity, organism-based; conditions: in vivo
[11] = Drug uptake in Harlan Sprague-Dawley rat brain at 10 mg/kg, po after 0.5 hrs; type: ADME, organism-based; parameters: dose 10 mg/kg, route oral; conditions: read-out: Drug uptake
Rattus norvegicus [12] = assay: Ex vivo receptor occupancy of mGlu5 receptor in Harlan Sprague-Dawley rat brain at 10 mg/kg, po after 1 hr; type: functional
[13] = Bioavailability in Harlan Sprague-Dawley rat at 1.5 mg/kg, po and 1 mg/kg, iv; type: ADME, organism-based; conditions: in vivo
[14] = Drug uptake in Harlan Sprague-Dawley rat brain at 10 mg/kg, po after 6 hrs; type: ADME, organism-based; parameters: dose 10 mg/kg, route oral; conditions: read-out: Drug uptake
[15] = biological target: Metabotropic glutamate receptor 5 (Rattus norvegicus, UniProt P31424); assay: Negative allosteric modulation of rat mGlu5 receptor
[16] = Drug uptake in Harlan Sprague-Dawley rat brain at 10 mg/kg, po after 1 hr; type: ADME, organism-based; parameters: dose 10 mg/kg, route oral; conditions: read-out: Drug uptake
Rattus norvegicus [17] = assay: Ex vivo receptor occupancy of mGlu5 receptor in po dosed Harlan Sprague-Dawley rat brain; type: functional
Rattus norvegicus [18] = assay: Ex vivo receptor occupancy of mGlu5 receptor in Harlan Sprague-Dawley rat brain at 10 mg/kg, po after 2 hrs; type: functional
[19] = Volume of distribution in Harlan Sprague-Dawley rat at 1.5 mg/kg, po and 1 mg/kg, iv; type: ADME, organism-based; conditions: in vivo
[20] = Cmax in Harlan Sprague-Dawley rat at 1.5 mg/kg, po; type: ADME, organism-based; parameters: dose 1.5 mg/kg, route oral; conditions: in vivo
[21] = Drug uptake in Harlan Sprague-Dawley rat brain at 10 mg/kg, po after 2 hrs; type: ADME, organism-based; parameters: dose 10 mg/kg, route oral; conditions: read-out: Drug uptake
Rattus norvegicus [22] = assay: Ex vivo receptor occupancy of mGlu5 receptor in Harlan Sprague-Dawley rat brain at 10 mg/kg, po after 6 hrs; type: functional
Rattus norvegicus [23] = assay: Ex vivo receptor occupancy of mGlu1 receptor in Harlan Sprague-Dawley rat brain up to 10 mg/kg, po; type: functional, organism-based; parameters: dose 10 mg/kg
[24] = Drug uptake in Harlan Sprague-Dawley rat brain at 10 mg/kg, po after 24 hrs; type: ADME, organism-based; parameters: dose 10 mg/kg, route oral; conditions: read-out: Drug uptake
Rattus norvegicus [25] = assay: Ex vivo receptor occupancy of mGlu5 receptor in Harlan Sprague-Dawley rat brain at 10 mg/kg, po after 24 hrs; type: functional
[26] = Drug uptake in Harlan Sprague-Dawley rat brain at 10 mg/kg, po after 4 hrs; type: ADME, organism-based; parameters: dose 10 mg/kg, route oral; conditions: read-out: Drug uptake
[27] = Tmax in Harlan Sprague-Dawley rat at 1.5 mg/kg, po; type: ADME, organism-based; parameters: dose 1.5 mg/kg, route oral; conditions: in vivo
[28] = biological target: T1, 5-hydroxytryptamine receptor 2B; conditions: 1 uM
Description: Inhibition of 5HT2B receptor (unknown origin) at 1 uM

[29] = AUC (0 to 24 hrs) in Harlan Sprague-Dawley rat at 1.5 mg/kg, po; type: ADME, organism-based; parameters: time < 24 hr, dose 1.5 mg/kg, route oral; conditions: plasma

Metabotropic glutamate receptor 1, sequence (Q13255 whole entry): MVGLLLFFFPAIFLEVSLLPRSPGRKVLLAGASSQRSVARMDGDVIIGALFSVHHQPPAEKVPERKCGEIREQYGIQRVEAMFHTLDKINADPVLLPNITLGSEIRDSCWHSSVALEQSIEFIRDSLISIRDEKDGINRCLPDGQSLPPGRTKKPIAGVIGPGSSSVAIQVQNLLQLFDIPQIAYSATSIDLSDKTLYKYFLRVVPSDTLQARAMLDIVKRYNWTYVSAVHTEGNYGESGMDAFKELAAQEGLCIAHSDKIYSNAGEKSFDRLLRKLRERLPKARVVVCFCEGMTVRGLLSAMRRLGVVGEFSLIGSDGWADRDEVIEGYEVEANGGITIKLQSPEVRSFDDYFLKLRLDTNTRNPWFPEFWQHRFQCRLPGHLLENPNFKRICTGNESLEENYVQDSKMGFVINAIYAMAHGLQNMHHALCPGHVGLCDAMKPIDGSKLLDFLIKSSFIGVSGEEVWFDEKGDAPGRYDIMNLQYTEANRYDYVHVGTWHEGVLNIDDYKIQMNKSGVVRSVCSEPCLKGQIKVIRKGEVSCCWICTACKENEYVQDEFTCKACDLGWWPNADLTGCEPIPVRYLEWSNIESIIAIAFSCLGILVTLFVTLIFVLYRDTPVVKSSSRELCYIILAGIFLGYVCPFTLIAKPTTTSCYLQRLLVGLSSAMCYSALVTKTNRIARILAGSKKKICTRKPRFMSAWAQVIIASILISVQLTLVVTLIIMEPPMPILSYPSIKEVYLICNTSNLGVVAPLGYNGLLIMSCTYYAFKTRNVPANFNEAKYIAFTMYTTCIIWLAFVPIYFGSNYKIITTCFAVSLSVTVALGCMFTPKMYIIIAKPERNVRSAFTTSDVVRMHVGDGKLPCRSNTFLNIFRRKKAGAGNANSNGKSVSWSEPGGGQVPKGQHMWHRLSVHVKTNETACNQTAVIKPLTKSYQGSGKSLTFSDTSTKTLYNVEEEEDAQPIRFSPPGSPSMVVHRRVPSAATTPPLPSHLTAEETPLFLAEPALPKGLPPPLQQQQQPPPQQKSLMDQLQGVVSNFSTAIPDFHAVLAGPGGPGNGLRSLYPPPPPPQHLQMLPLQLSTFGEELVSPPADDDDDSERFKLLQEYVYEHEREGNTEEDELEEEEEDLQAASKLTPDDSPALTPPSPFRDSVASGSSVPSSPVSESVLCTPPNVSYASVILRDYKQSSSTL
Metabotropic glutamate receptor 5 (Homo sapiens, UniProt P41594), sequence (P41594 whole entry): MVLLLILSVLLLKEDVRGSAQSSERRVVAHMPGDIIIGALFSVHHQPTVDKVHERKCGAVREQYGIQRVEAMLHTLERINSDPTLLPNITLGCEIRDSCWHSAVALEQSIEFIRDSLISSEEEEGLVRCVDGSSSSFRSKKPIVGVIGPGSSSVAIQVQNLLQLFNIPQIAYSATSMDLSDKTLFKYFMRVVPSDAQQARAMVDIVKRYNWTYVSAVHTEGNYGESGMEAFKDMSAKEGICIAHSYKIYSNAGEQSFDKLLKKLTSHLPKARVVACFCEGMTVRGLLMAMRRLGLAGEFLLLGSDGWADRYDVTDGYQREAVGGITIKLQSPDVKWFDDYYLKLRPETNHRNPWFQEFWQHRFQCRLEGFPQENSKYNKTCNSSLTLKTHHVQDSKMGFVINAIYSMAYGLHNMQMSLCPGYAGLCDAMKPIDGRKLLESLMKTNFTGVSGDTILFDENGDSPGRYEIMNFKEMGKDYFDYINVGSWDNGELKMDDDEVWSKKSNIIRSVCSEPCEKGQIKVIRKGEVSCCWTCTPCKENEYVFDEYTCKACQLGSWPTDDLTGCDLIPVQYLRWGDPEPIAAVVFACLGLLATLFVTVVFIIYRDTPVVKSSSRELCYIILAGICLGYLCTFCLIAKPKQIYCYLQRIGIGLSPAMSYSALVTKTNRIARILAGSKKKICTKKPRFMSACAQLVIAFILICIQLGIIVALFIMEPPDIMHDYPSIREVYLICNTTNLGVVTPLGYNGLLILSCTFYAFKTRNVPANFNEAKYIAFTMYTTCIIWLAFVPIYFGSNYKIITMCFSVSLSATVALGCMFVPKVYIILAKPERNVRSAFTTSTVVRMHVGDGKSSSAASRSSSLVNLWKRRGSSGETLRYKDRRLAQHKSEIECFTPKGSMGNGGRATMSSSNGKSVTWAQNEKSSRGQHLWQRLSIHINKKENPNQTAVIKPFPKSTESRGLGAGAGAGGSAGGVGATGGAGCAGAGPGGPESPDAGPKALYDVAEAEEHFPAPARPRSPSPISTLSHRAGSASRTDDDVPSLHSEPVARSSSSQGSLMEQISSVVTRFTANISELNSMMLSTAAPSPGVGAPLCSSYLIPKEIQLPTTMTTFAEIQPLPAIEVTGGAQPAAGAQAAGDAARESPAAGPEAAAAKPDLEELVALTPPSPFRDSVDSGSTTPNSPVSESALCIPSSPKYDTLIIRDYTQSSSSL
T1 sequence (P41595 whole entry): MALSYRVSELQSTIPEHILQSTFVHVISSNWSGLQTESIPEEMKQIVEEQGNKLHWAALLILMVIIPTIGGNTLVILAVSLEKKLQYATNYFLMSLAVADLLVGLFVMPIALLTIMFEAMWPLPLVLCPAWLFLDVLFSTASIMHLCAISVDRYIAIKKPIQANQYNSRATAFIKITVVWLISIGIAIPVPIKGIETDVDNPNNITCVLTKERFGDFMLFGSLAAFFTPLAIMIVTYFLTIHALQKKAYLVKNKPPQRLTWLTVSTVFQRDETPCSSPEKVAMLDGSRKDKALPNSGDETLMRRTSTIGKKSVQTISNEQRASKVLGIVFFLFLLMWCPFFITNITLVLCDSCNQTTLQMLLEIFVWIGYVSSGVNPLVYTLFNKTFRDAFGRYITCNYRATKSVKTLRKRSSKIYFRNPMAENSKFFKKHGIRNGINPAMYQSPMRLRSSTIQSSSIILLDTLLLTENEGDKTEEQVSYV
Metabotropic glutamate receptor 5 (Rattus norvegicus, UniProt P31424), sequence (P31424 whole entry): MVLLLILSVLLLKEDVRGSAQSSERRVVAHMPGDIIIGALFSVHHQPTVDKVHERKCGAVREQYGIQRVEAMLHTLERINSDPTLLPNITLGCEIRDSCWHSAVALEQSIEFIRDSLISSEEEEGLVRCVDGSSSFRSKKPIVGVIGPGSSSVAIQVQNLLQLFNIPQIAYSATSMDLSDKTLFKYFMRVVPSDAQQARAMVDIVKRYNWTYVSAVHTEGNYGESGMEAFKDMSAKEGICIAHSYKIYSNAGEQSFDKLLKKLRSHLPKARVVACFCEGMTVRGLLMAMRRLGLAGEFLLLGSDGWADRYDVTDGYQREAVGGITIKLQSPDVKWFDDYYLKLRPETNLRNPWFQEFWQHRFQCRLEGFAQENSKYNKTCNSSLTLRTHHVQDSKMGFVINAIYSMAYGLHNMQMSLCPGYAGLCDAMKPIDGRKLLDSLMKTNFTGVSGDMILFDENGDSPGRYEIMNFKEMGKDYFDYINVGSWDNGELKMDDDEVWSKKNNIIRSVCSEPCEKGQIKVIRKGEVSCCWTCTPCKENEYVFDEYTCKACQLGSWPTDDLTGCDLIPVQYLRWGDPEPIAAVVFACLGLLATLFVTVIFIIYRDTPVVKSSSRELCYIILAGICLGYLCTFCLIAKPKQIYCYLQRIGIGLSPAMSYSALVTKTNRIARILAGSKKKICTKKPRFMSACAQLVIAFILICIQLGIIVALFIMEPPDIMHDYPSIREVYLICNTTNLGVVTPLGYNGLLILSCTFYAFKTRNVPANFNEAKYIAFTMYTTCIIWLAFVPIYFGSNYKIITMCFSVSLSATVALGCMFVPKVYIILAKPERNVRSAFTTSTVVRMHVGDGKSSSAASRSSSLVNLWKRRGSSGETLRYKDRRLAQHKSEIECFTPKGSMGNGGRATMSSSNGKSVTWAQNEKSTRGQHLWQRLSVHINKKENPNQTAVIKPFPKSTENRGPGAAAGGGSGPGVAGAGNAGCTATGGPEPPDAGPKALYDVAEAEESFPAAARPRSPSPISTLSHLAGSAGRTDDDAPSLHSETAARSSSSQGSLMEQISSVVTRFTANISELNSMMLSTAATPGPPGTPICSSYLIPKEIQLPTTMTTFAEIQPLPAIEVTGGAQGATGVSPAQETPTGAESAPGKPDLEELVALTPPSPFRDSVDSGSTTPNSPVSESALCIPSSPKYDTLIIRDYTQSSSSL

IC50 [1]: 0.19 µM
Ratio IC50 (Homo sapiens): 5
IC50 [2]: 0.036 µM
SMILES: COc1cccc(-c2c(-c3ccc4nn(C)cc4c3)nsc2NC(=O)[C@@H]2C[C@H]2C)n1

IC50 [1]: 1.02 µM
Ratio IC50 (Homo sapiens): 13
IC50 [2]: 0.081 µM
SMILES: C[C@@H]1C[C@H]1C(=O)Nc1snc(-c2ccc3nn(C)cc3c2)c1-c1cccc(C(F)F)n1

IC50 [1]: 1.3 µM
Ratio IC50 (Homo sapiens): 26
IC50 [2]: 0.05 µM
SMILES: C[C@@H]1C[C@H]1C(=O)Nc1snc(-c2ccc3nn(C)cc3c2)c1-c1cccc(CF)n1

IC50 [1]: 9.54 µM
Ratio IC50 (Homo sapiens): 477
IC50 [2]: 0.02 µM
SMILES: C[C@@H]1C[C@H]1C(=O)Nc1snc(-c2ccc3nn(C)cc3c2)c1-c1cccc(N(C)C)n1

IC50 [1]: 0.891 µM
Ratio IC50 (Homo sapiens): 33
IC50 [2]: 0.027 µM
SMILES: C[C@@H]1C[C@H]1C(=O)Nc1snc(-c2ccc3nn(C)cc3c2)c1-c1cccc(C2CCCC2)n1

IC50 [1]: 2.21 µM
Ratio IC50 (Homo sapiens): 49
IC50 [2]: 0.045 µM
SMILES: Cc1cccc(-c2c(-c3ccc4nn(C)cc4c3)nsc2NC(=O)[C@@H]2C[C@H]2C)n1

IC50 [1]: 0.409 µM
Ratio IC50 (Homo sapiens): 20
IC50 [2]: 0.02 µM
SMILES: CCCc1cccc(-c2c(-c3ccc4nn(C)cc4c3)nsc2NC(=O)[C@@H]2C[C@H]2C)n1

IC50 [1]: 4.57 µM
Ratio IC50 (Homo sapiens): 102
IC50 [2]: 0.045 µM
SMILES: CC(C)c1cccc(-c2c(-c3ccc4n[nH]cc4c3)nsc2NC(=O)[C@@H]2C[C@H]2C)n1

IC50 [1]: 0.238 µM
Ratio IC50 (Homo sapiens): 8
IC50 [2]: 0.029 µM
SMILES: C[C@@H]1C[C@H]1C(=O)Nc1snc(-c2ccc3nn(C)cc3c2)c1-c1ccccn1

IC50 [1]: > 12.5 µM
Ratio IC50 (Homo sapiens): > 357
IC50 [2]: 0.035 µM
SMILES: CC[C@@H]1C[C@H]1C(=O)Nc1snc(-c2ccc3nn(C)cc3c2)c1-c1cccc(N(C)C)n1

The remaining lines, values behind:

SMILES: COc1ccc(-c2nsc(NC(=O)[C@@H]3C[C@H]3C)c2C)cc1
Ratio IC50 (Homo sapiens): > 20

SMILES: CCc1cccc(-c2c(-c3ccc4n[nH]cc4c3)nsc2NC(=O)[C@@H]2C[C@H]2C)n1
IC50 [1]: 3.11 µM
Ratio IC50 (Homo sapiens): 86
IC50 [2]: 0.036 µM

SMILES: CC(C)c1cccc(-c2c(-c3ccc4nn(C)cc4c3)nsc2NC(=O)[C@@H]2C[C@H]2C)n1.Cl
Activity (Rattus norvegicus [3]): 67.7%
clearance [4]: 0.504 L/h/kg
IC50 [1]: 0.644 µM
Ki [5]: 3.16 µM
Activity (Rattus norvegicus [6]): 37.8%
ED50 (Rattus norvegicus [7]): 25.5 mg/kg
inhibition (Rattus norvegicus [7]): Dose-dependent effect
half-life [8]: 4.6 h
half-life [9]: 4.9 h
Activity (Rattus norvegicus [10]): Non-toxic
concentration at 0.5 h [11]: 1.25 µM
Activity (Rattus norvegicus [12]): 57.8%
bioavailability [13]: 56.5%
Ratio IC50 (Homo sapiens): 34
concentration at 6 h [14]: 2.98 µM
IC50 [2]: 0.019 µM
IC50 [15]: 0.167 µM
concentration at 1 h [16]: 2.23 µM
Activity (Rattus norvegicus [17]): Dose-dependent effect
ED50 (Rattus norvegicus [17]): 2.1 mg/kg
Activity (Rattus norvegicus [18]): 74.3%
Vd [19]: 2.7 L/kg
Cmax [20]: 0.255 µg/mL
concentration at 2 h [21]: 2.85 µM
Activity (Rattus norvegicus [22]): 62.5%
Activity (Rattus norvegicus [23]): inactive
concentration at 24 h [24]: 2.34 µM
Activity (Rattus norvegicus [25]): 58.9%
concentration at 4 h [26]: 2.59 µM
Tmax [27]: 2 h
inhibition [28]: 56%
AUC(0-t) at 24 h [29]: 1.57 µg·h/mL

SMILES: C[C@@H]1C[C@H]1C(=O)Nc1snc(-c2ccc3n[nH]cc3c2)c1-c1cccc(N(C)C)n1
IC50 [1]: > 12.5 µM
Ratio IC50 (Homo sapiens): > 266
IC50 [2]: 0.047 µM

SMILES: CC(C)c1cccc(-c2c(-c3ccc4nn(C)cc4c3)nsc2NC(=O)C2CC2)n1
IC50 [1]: 0.397 µM
Ratio IC50 (Homo sapiens): 10
IC50 [2]: 0.039 µM

SMILES: CNc1cccc(-c2c(-c3ccc4nn(C)cc4c3)nsc2NC(=O)[C@@H]2C[C@H]2C)n1
IC50 [1]: 1.59 µM
Ratio IC50 (Homo sapiens): 26
IC50 [2]: 0.062 µM

SMILES: CCc1cccc(-c2c(-c3ccc4nn(C)cc4c3)nsc2NC(=O)[C@@H]2C[C@H]2C)n1
IC50 [1]: 0.279 µM
Ratio IC50 (Homo sapiens): 28
IC50 [2]: 0.01 µM

SMILES: C[C@@H]1C[C@H]1C(=O)Nc1snc(-c2ccc3nn(C)cc3c2)c1-c1cccc(C2CCC2)n1
IC50 [1]: 0.687 µM
Ratio IC50 (Homo sapiens): 13
IC50 [2]: 0.054 µM

SMILES: C[C@@H]1C[C@H]1C(=O)Nc1snc(-c2ccc3nn(C)cc3c2)c1-c1cccc(C2CC2)n1
IC50 [1]: 0.735 µM
Ratio IC50 (Homo sapiens): 25
IC50 [2]: 0.03 µM
